According to patent publication US9249104B2, “Pyrazole indanyl carboxamides” (BAYER CROPSCIENCE AG, priority 2012, dated 2016):

Tests used:
Septoria tritici = test: In vivo preventive test on Septoria tritici (leaf spot on wheat); settings: 500 ppm, wheat plants sprayed 24 h before contamination, graded 24 days after contamination
Protocol: Wheat plants (“Scipion” variety), sown in starter cups on a 50/50 peat soil-pozzolana substrate and grown at 22° C., are treated at the 1-leaf stage (10 cm height) by spraying with the active ingredient prepared as described above. Plants, used as controls, are treated with the mixture of acetone/tween/DMSO/water not containing the active material. After 24 hours, the plants are contaminated by spraying the leaves with an aqueous suspension of cryopreserved Septoria tritici spores (500 000 spores per ml). The contaminated wheat plants are incubated for 72 hours at 18° C. and at 100% relative humidity, and then for 21 days at 90% relative humidity. Grading (% of efficacy) is carried out 24 days after the contamination, in comparison with the control plants.

Puccinia recondita = test: In vivo preventive test on Puccinia recondita (brown rust on wheat); settings: 500 ppm, wheat plants sprayed 24 h before contamination, graded 12 days after contamination
Protocol: Wheat plants (“Scipion” variety), sown in starter cups on a 50/50 peat soil-pozzolana substrate and grown at 22° C., are treated at the 1-leaf stage (10 cm height) by spraying with the active ingredient prepared as described above. Plants, used as controls, are treated with the mixture of acetone/tween/DMSO/water not containing the active material. After 24 hours, the plants are contaminated by spraying the leaves with an aqueous suspension of Puccinia recondita spores (100 000 spores per ml). The spores are collected from an infected plant and are suspended in water to containing 2.5 ml/l of Tween 80 at 10%. […] Grading (% of efficacy) is carried out 12 days after the contamination, in comparison with the control plants.

Sphaerotheca fuliginea = test: In vivo preventive test on Sphaerotheca fuliginea (powdery mildew on cucurbits); settings: 500 ppm, gherkin plants sprayed 24 h before contamination, graded 12 days after contamination
Protocol: Gherkin plants (“Vert petit de Paris” variety), sown in starter cups on a 50/50 peat soil-pozzolana substrate and grown at 24° C., are treated at the Z11 cotyledon stage by spraying with the active ingredient prepared as described above. Plants, used as controls, are treated with the mixture of acetone/tween/DMSO/water not containing the active material. After 24 hours, the plants are contaminated by spraying the cotyledons with an aqueous suspension of Sphaerotheca fuliginea spores (100 000 spores per ml). The spores are collected from infected plants. […] Grading (% of efficacy) is carried out 12 days after the contamination, in comparison with the control plants.

Alternaria brassicae = test: In vivo preventive test on Alternaria brassicae (leaf spot on radish); settings: 500 ppm, radish plants sprayed 24 h before contamination, graded 6 days after contamination
Protocol: Radish plants (“Pernod Clair” variety), sown in starter cups on a 50/50 peat soil-pozzolana substrate and grown at 17° C., are treated at the cotyledon stage by spraying with the active ingredient prepared as described above. Plants, used as controls, are treated with the mixture of acetone/tween/DMSO/water not containing the active material. After 24 hours, the plants are contaminated by spraying the cotyledons with an aqueous suspension of Alternaria brassicae spores (50 000 spores per ml). The spores are collected from a 15-day-old culture. The contaminated radish plants are incubated at 20° C. and at 100% relative humidity. Grading (% of efficacy) is carried out 6 days after the contamination, in comparison with the control plants.

[1] = logP by HPLC on reversed phase columns (EEC directive 79/831 Annex V.A8); format: physicochemical; settings: method [a]: LC-MS at pH 2.7, 0.1% formic acid in water / acetonitrile; compounds of formula (I), Table 1
Uromyces appendiculatus = test: In vivo preventive test on Uromyces appendiculatus (bean rust); settings: preventive, bean plants, dose of 500 ppm, grading 11 days after contamination
Protocol: Bean plants (“Saxa” variety), sown in starter cups on a 50/50 peat soil-pozzolana substrate and grown at 24° C., are treated at the 2-leaf stage (9 cm height) by spraying with the active ingredient prepared as described above. Plants, used as controls, are treated with the mixture of acetone/tween/DMSO/water not containing the active material. After 24 hours, the plants are contaminated by spraying the leaves with an aqueous suspension of Uromyces appendiculatus spores (150 000 spores per ml). The spores are collected from infected plants and are suspended in water containing 2.5 ml/1 of Tween 80 at 10%. […] Grading (% of efficacy) is carried out 11 days after the contamination, in comparison with the control plants.

Compound | Eff. % (Septoria tritici) [%] | Eff. % (Puccinia recondita) [%] | Eff. % (Sphaerotheca fuliginea) [%] | Eff. % (Alternaria brassicae) [%] | logP [1] | Eff. % (Uromyces appendiculatus) [%]
CON=C1c2cccc(NC(=O)c3cn(C)nc3C(F)(F)F)c2CC1(C)C (mixture of isomers) [Example 30] | 100 | 86 | 98 | – | – | –
CON=C1c2cccc(NC(=O)c3cn(C)nc3C(F)F)c2CC1(C)C (mixture of isomers) [Example 32] | 100 | 93 | 98 | 75 | – | –
CON=C1c2cccc(NC(=O)c3c(C)nn(C)c3F)c2CC1(C)C (mixture of isomers) [Example 34] | – | 71 | – | – | – | –
CON=C1c2cccc(NC(=O)c3c(C)nn(C)c3C)c2CC1(C)C (mixture of isomers) [Example 35] | – | 79 | – | – | – | –
Cc1c(C(=O)Nc2cccc3c2CC(C(C)C)C3(C)C)cnn1C (racemic) [Example 62] | – | 81 | – | – | 3.73[a] | 99
CCC1Cc2c(NC(=O)c3c(C)nn(C)c3Cl)cccc2C1(C)C (racemic) [Example 68] | – | 100 | – | 75 | 4.32[a] | 100
CCC1(CC)Cc2c(NC(=O)c3c(C)nn(C)c3F)cccc2C1C (racemic) [Example 70] | – | 98 | 98 | – | 4.32[a] | 100
Cc1c(C(=O)Nc2cccc3c2CC(C)C3(C)C)cnn1C (racemic) [Example 71] | 97 | 81 | – | – | 3[a] | 79
CCc1nn(C)cc1C(=O)Nc1cccc2c1CC(C)C2(C)C (racemic) [Example 73] | – | 88 | – | – | 3.27[a] | 100
CCC1(CC)Cc2c(NC(=O)c3cn(C)nc3C(F)(F)F)cccc2C1C (racemic) [Example 74] | 94 | 98 | 98 | – | 4.46[a] | 100
CC1Cc2c(NC(=O)c3cn(C)nc3I)cccc2C1(C)C (racemic) [Example 75] | 79 | 98 | 78 | – | 3.64[a] | 100
CCC1(CC)Cc2c(NC(=O)c3cn(C)nc3C(F)F)cccc2C1C (racemic) [Example 79] | 98 | 98 | 100 | 95 | 4.27[a] | 100
Cc1nn(C)c(Cl)c1C(=O)Nc1cccc2c1CC(C)C2(C)C (racemic) [Example 80] | – | 98 | – | – | 3.83[a] | 100
CC1Cc2c(NC(=O)c3c(C(F)(F)F)nn(C)c3F)cccc2C1(C)C (racemic) [Example 83] | – | 98 | – | – | 4.09[a] | 100
Cc1nn(C)c(C(F)F)c1C(=O)Nc1cccc2c1CC(C)C2(C)C (racemic) [Example 87] | 92 | 100 | – | – | 3.96[a] | 100
Cn1cc(C(=O)Nc2cccc3c2CC(O)C3)c(C(F)F)n1 (centres unmarked) [Example 1] | 70 | – | – | – | – | –
CC(C)CC1Cc2cccc(NC(=O)c3cn(C)nc3C(F)F)c2C1 (centres unmarked) [Example 4] | 85 | 93 | 70 | 93 | – | 100
CCc1nn(C)c(Cl)c1C(=O)Nc1cccc2c1CC(C)C2(C)C (centres unmarked) [Example 7] | – | 96 | – | – | 4.31[a] | 100
CC1Cc2c(NC(=O)c3c(C(F)(F)F)nn(C)c3Cl)cccc2C1(C)C (centres unmarked) [Example 11] | – | 96 | – | – | 4.26[a] | 100
CCc1nn(C)c(F)c1C(=O)Nc1cccc2c1CC(C)(C)C2C (centres unmarked) [Example 14] | – | 98 | – | – | 3.99[a] | 100

Compound | Eff. % (Septoria tritici) [%] | Eff. % (Puccinia recondita) [%] | Eff. % (Sphaerotheca fuliginea) [%] | Eff. % (Alternaria brassicae) [%] | logP [1] | Eff. % (Uromyces appendiculatus) [%]
CC1c2cccc(NC(=O)c3cn(C)nc3C(F)(F)F)c2CC1(C)C (centres unmarked) [Example 15] | – | 96 | 100 | 86 | 3.74[a] | 100
Cc1c(C(=O)Nc2cccc3c2CC(C)C3(C)C)c(C(F)(F)F)nn1C (centres unmarked) [Example 18] | – | 75 | – | – | 3.83[a] | –
CCCc1nn(C)cc1C(=O)Nc1cccc2c1CC(C)C2(C)C (centres unmarked) [Example 21] | – | 75 | – | – | 3.64[a] | –
CC1Cc2c(NC(=O)c3cnn(C)c3Cl)cccc2C1(C)C (centres unmarked) [Example 22] | 92 | 81 | – | – | 3.44[a] | –
CC(C)c1nn(C)cc1C(=O)Nc1cccc2c1CC(C)C2(C)C (centres unmarked) [Example 23] | – | 81 | – | – | 3.69[a] | 89
[2H]C1(C)Cc2cccc(NC(=O)c3cn(C)nc3C(F)F)c2C1 (centres unmarked) [Example 26] | 100 | 100 | 89 | – | 2.94[a] | 100
CCC1Cc2c(NC(=O)c3c(C)nn(C)c3C)cccc2C1(C)C (centres unmarked) [Example 38] | – | 100 | – | 80 | 3.55[a] | 100
Cc1nn(C)c(C)c1C(=O)Nc1cccc2c1CC(C(C)C)C2(C)C (centres unmarked) [Example 42] | – | 100 | 100 | – | 3.87[a] | 100
Cc1nn(C)c(C)c1C(=O)Nc1cccc2c1CC(C)(C)C2 [Example 43] | – | 89 | – | – | 2.77[a] | –
Cc1nn(C)c(F)c1C(=O)Nc1cccc2c1CC(C)(C)C2 [Example 44] | – | 78 | – | – | – | 98
Cn1cc(C(=O)Nc2cccc3c2CC(C)(C)C3)c(C(F)F)n1 [Example 45] | 97 | 98 | 100 | – | 3.21[a] | 100
CCCc1nn(C)c(F)c1C(=O)Nc1cccc2c1CC(CC)C2(C)C (centres unmarked) [Example 48] | – | – | 94 | – | 4.85[a] | –
CCC1Cc2c(NC(=O)c3c(C(F)(F)F)nn(C)c3C)cccc2C1(C)C (centres unmarked) [Example 49] | – | 94 | – | – | 4.3[a] | 99
CCC1Cc2c(NC(=O)c3c(C(F)(F)F)nn(C)c3F)cccc2C1(C)C (centres unmarked) [Example 50] | – | 98 | 98 | 88 | 4.51[a] | 100
CC1c2cccc(NC(=O)c3cn(C)nc3C(F)(F)F)c2CC1(C)C (centres unmarked) [Example 52] | 94 | 100 | 98 | – | 3.72[a] | 100
Cc1c(C(=O)Nc2cccc3c2CC(C(C)C)C3(C)C)c(C(F)(F)F)nn1C (centres unmarked) [Example 54] | – | 81 | – | – | 4.66[a] | 83
Cc1nn(C)c(C)c1C(=O)Nc1cccc2c1CC(C)(C)C2C (centres unmarked) [Example 55] | – | 100 | 88 | – | 3.09[a] | 100
CCC1Cc2c(NC(=O)c3cnn(C)c3C)cccc2C1(C)C (centres unmarked) [Example 59] | – | 89 | – | – | 3.42[a] | 100
Cc1nn(C)c(F)c1C(=O)Nc1cccc2c1CC(C)(C)C2C (centres unmarked) [Example 60] | – | 98 | 98 | – | 3.5[a] | 100
